From PubChem BioAssay AID328 (DTP/NCI, 2004)
Inconclusive results and toxic doses are left out. The calls were made as follows: active = survival T/C of 150% or more; inactive = T/C below 125% in these data.

Tested on: BDF1 mice, P388 leukemia ip, median survival T/C
Assay: NCI In Vivo Anticancer Drug Screen. Data for tumor model P388 Leukemia (intraperitoneal) in B6D2F1 (BDF1) mice
Details: endpoint: median survival time, higher = longer survival
How it was run: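 Compound-treated tumour-bearing mice were compared with vehicle-treated controls. Survival was recorded, and the value is the treated-group measurement divided by the control-group measurement (T/C).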

[1] = dose: 100.0 mg/kg/injection, schedule: Q04DX003 (ip), vehicle: saline with Tween-80
[2] = dose: 200.0 mg/kg/injection, schedule: Q04DX003 (ip), vehicle: saline with Tween-80
[3] = dose: 400.0 mg/kg/injection, schedule: Q04DX003 (ip), vehicle: saline with Tween-80
[4] = dose: 50.0 mg/kg/injection, schedule: Q01DX009 (ip), vehicle: saline with Tween-80
[5] = dose: 100.0 mg/kg/injection, schedule: Q01DX009 (ip), vehicle: saline with Tween-80
[6] = dose: 1.56 mg/kg/injection, schedule: Q01DX009 (ip), vehicle: saline with Tween-80
[7] = dose: 3.13 mg/kg/injection, schedule: Q01DX009 (ip), vehicle: saline with Tween-80
[8] = dose: 6.25 mg/kg/injection, schedule: Q01DX009 (ip), vehicle: saline with Tween-80
[9] = dose: 12.5 mg/kg/injection, schedule: Q01DX009 (ip), vehicle: saline with Tween-80
[10] = dose: 25.0 mg/kg/injection, schedule: Q04DX003 (ip), vehicle: saline with Tween-80
[11] = dose: 50.0 mg/kg/injection, schedule: Q04DX003 (ip), vehicle: saline with Tween-80
[12] = dose: 100.0 mg/kg/injection, schedule: Q04DX003 (ip), vehicle: saline sonified
[13] = dose: 400.0 mg/kg/injection, schedule: Q04DX003 (ip), vehicle: saline sonified
[14] = dose: 50.0 mg/kg/injection, schedule: Q01DX009 (ip), vehicle: saline
[15] = dose: 100.0 mg/kg/injection, schedule: Q01DX009 (ip), vehicle: saline
[16] = dose: 200.0 mg/kg/injection, schedule: Q04DX003 (ip), vehicle: saline sonified
[17] = dose: 25.0 mg/kg/injection, schedule: Q01DX009 (ip), vehicle: Klucel (hydroxypropylcellulose) (HPC)
[18] = dose: 50.0 mg/kg/injection, schedule: Q01DX009 (ip), vehicle: Klucel (hydroxypropylcellulose) (HPC)

Measured: T/C

Cc1ccc(NC(=O)Nc2ccccc2C(F)(F)F)cc1NC(=O)Nc1ccccc1C(F)(F)F
inactive: [1] 100 % of control | [2] 100 % of control | [3] 104 % of control

COC(=O)/C=C\SC(=S)C1CCCC1=NC1CCCCC1 (stereo unspecified)
inactive: [4] 102 % of control | [5] 97 % of control

CN(C)C(=S)N=Nc1c(O)[nH]c2ccccc12
inactive: [6] 109 % of control | [7] 100 % of control | [8] 100 % of control | [9] 92 % of control | [10] 105 % of control | [11] 100 % of control | [12] 90 % of control | [1] 100 % of control | [13] 90 % of control

N=C(N)Sc1cc(O)ccc1O
inactive: [14] 109 % of control | dose: 65.0 mg/kg/injection, schedule: Q01DX009 (ip), vehicle: saline 115 % of control | [15] 115 % of control

Cc1ccc(OCc2c(COc3ccc(Cl)cc3)sc3ccc(Cl)cc23)cc1
inactive: dose: 12.5 mg/kg/injection, schedule: Q04DX003 (ip), vehicle: saline with Tween-80 95 % of control | [10] 87 % of control

COC(=O)[C@]1(C)CCC[C@]2(C)c3ccc(C(C)C)cc3CC[C@@H]12
inactive: dose: 0.5 mg/kg/injection, schedule: Q01DX009 (ip), vehicle: Klucel (hydroxypropylcellulose) (HPC) 100 % of control | dose: 0.5 mg/kg/injection, schedule: Q04DX003 (ip), vehicle: Klucel (hydroxypropylcellulose) (HPC) 100 % of control | dose: 1.0 mg/kg/injection, schedule: Q01DX009 (ip), vehicle: Klucel (hydroxypropylcellulose) (HPC) 103 % of control | dose: 1.0 mg/kg/injection, schedule: Q04DX003 (ip), vehicle: Klucel (hydroxypropylcellulose) (HPC) 100 % of control | dose: 2.0 mg/kg/injection, schedule: Q01DX009 (ip), vehicle: Klucel (hydroxypropylcellulose) (HPC) 92 % of control | dose: 2.0 mg/kg/injection, schedule: Q04DX003 (ip), vehicle: Klucel (hydroxypropylcellulose) (HPC) 104 % of control

CN(C)C/C=C(/c1ccc(Br)cc1)c1cccnc1
inactive: dose: 12.5 mg/kg/injection, schedule: Q01DX009 (ip), vehicle: saline 89 % of control | dose: 25.0 mg/kg/injection, schedule: Q01DX009 (ip), vehicle: saline 103 % of control | [14] 97 % of control

CCCCCCC(=O)/C=C/c1ccccc1OC
inactive: [4] 90 % of control | [5] 99 % of control | dose: 200.0 mg/kg/injection, schedule: Q01DX009 (ip), vehicle: saline with Tween-80 117 % of control

CC(C)c1cccc(OS(=O)(=O)c2ccccc2[N+](=O)[O-])c1
inactive: [12] 100 % of control | [16] 100 % of control | [13] 100 % of control

CSc1ccc(C(O)CNC(C)C)cc1C (stereo unspecified)
inactive: [14] 100 % of control | [15] 100 % of control

C=C1C(=O)O[C@@H]2/C=C(\CO)CC/C=C(\C)C[C@H](OC(=O)C(C)CO)[C@@H]12 (stereo partly specified)
inactive: dose: 2.75 mg/kg/injection, schedule: Q01DX009 (ip), vehicle: alcohol 118 % of control

COc1ccc2c(c1C)CCC1(CO)CC(C)=CCC21 (stereo unspecified)
inactive: dose: 100.0 mg/kg/injection, schedule: Q01DX001 (ip), vehicle: saline sonified 90 % of control | dose: 200.0 mg/kg/injection, schedule: Q01DX001 (ip), vehicle: saline sonified 90 % of control | dose: 400.0 mg/kg/injection, schedule: Q01DX001 (ip), vehicle: saline sonified 86 % of control

C/C(=C\COc1ccc2ccc(=O)oc2c1)C1=CC(=O)C(C)(C)O1
inactive: [17] 93 % of control | [18] 94 % of control | dose: 100.0 mg/kg/injection, schedule: Q01DX001 (ip), vehicle: saline with Tween-80 100 % of control | dose: 100.0 mg/kg/injection, schedule: Q01DX009 (ip), vehicle: Klucel (hydroxypropylcellulose) (HPC) 87 % of control | [5] 115 % of control | dose: 200.0 mg/kg/injection, schedule: Q01DX001 (ip), vehicle: saline with Tween-80 103 % of control | dose: 200.0 mg/kg/injection, schedule: Q01DX009 (ip), vehicle: Klucel (hydroxypropylcellulose) (HPC) 95 % of control | dose: 400.0 mg/kg/injection, schedule: Q01DX001 (ip), vehicle: saline with Tween-80 100 % of control

OCCNCc1ccccc1
inactive: dose: 100.0 mg/kg/injection, schedule: Q04DX003 (ip), vehicle: water 100 % of control | dose: 400.0 mg/kg/injection, schedule: Q04DX003 (ip), vehicle: water 113 % of control

CCCSCCSCCC
inactive: [10] 100 % of control | [11] 109 % of control | [1] 113 % of control

COP(=S)(NC(C)C)Oc1ccc(C)cc1[N+](=O)[O-] (stereo unspecified)
inactive: [6] 106 % of control | [7] 89 % of control | [8] 97 % of control | [9] 100 % of control

O=C1C=CC(=O)N1CO
inactive: dose: 0.62 mg/kg/injection, schedule: Q04DX003 (ip), vehicle: saline 100 % of control | dose: 1.25 mg/kg/injection, schedule: Q01DX009 (ip), vehicle: saline 109 % of control | dose: 1.25 mg/kg/injection, schedule: Q04DX003 (ip), vehicle: saline 95 % of control | dose: 2.5 mg/kg/injection, schedule: Q01DX009 (ip), vehicle: saline 118 % of control | dose: 2.5 mg/kg/injection, schedule: Q04DX003 (ip), vehicle: saline 90 % of control | dose: 3.6 mg/kg/injection, schedule: Q04DX003 (ip), vehicle: saline 100 % of control | dose: 5.6 mg/kg/injection, schedule: Q04DX003 (ip), vehicle: saline 104 % of control | dose: 8.4 mg/kg/injection, schedule: Q04DX003 (ip), vehicle: saline 104 % of control

COc1ccc2nc(C)c(COC(C)=O)cc2c1
inactive: dose: 25.0 mg/kg/injection, schedule: Q01DX009 (ip), vehicle: saline + alcohol 93 % of control | dose: 50.0 mg/kg/injection, schedule: Q01DX009 (ip), vehicle: saline + alcohol 111 % of control | dose: 50.0 mg/kg/injection, schedule: Q04DX003 (ip), vehicle: saline + alcohol 109 % of control | dose: 100.0 mg/kg/injection, schedule: Q01DX009 (ip), vehicle: saline + alcohol 101 % of control | dose: 100.0 mg/kg/injection, schedule: Q04DX003 (ip), vehicle: saline + alcohol 109 % of control | dose: 200.0 mg/kg/injection, schedule: Q01DX009 (ip), vehicle: saline + alcohol 90 % of control | dose: 200.0 mg/kg/injection, schedule: Q04DX003 (ip), vehicle: saline + alcohol 97 % of control | dose: 400.0 mg/kg/injection, schedule: Q01DX009 (ip), vehicle: saline + alcohol 109 % of control | dose: 400.0 mg/kg/injection, schedule: Q04DX003 (ip), vehicle: saline + alcohol 110 % of control

CC(=O)[C@H]1CC[C@H]2[C@@H]3C[C@H](C)C4=CC(=O)CC[C@]4(C)[C@H]3C(=O)C[C@]12C
inactive: [1] 103 % of control | [2] 107 % of control | [3] 103 % of control

CCC(C)(O)C#CC#CC(C)(O)CC (stereo unspecified)
inactive: dose: 12.5 mg/kg/injection, schedule: Q01DX009 (ip), vehicle: Klucel (hydroxypropylcellulose) (HPC) 100 % of control | dose: 12.5 mg/kg/injection, schedule: Q04DX003 (ip), vehicle: Klucel (hydroxypropylcellulose) (HPC) 100 % of control | [17] 100 % of control | dose: 25.0 mg/kg/injection, schedule: Q04DX003 (ip), vehicle: Klucel (hydroxypropylcellulose) (HPC) 90 % of control | [18] 113 % of control | dose: 50.0 mg/kg/injection, schedule: Q04DX003 (ip), vehicle: Klucel (hydroxypropylcellulose) (HPC) 95 % of control

COc1ccccc1NC(=O)Oc1ccc(OCc2ccccc2)cc1
inactive: [1] 95 % of control | [2] 87 % of control | [3] 100 % of control

CC1(c2ccc(Cl)cc2)NC(=O)NC1=O (stereo unspecified)
inactive: [16] 91 % of control | [13] 87 % of control

CSc1ccc(NC(=O)Nc2ccc(N=Nc3ccccc3)cc2)cc1
inactive: dose: 42.5 mg/kg/injection, schedule: Q01DX009 (ip), vehicle: Klucel (hydroxypropylcellulose) (HPC) 100 % of control | dose: 85.0 mg/kg/injection, schedule: Q01DX009 (ip), vehicle: Klucel (hydroxypropylcellulose) (HPC) 100 % of control | dose: 170.0 mg/kg/injection, schedule: Q01DX009 (ip), vehicle: Klucel (hydroxypropylcellulose) (HPC) 100 % of control
